ChEMBL document CHEMBL1150311, “4-Methyl-5-phenyl triazoles as selective inhibitors of 11beta-hydroxysteroid dehydrogenase type I” (Bioorg Med Chem Lett, 2008)

Tests used:
[1] = tested on: Mus musculus; test: Inhibition of [3H]cortisone to [3H]cortisol conversion in mouse at 10 mg/kg, po administered as single dose after 16 hrs; assay type: functional
[2] = molecular target: T1, 11-beta-hydroxysteroid dehydrogenase type 2 (Homo sapiens) (UniProt P80365); details: at 4 µM
T1 sequence (whole entry): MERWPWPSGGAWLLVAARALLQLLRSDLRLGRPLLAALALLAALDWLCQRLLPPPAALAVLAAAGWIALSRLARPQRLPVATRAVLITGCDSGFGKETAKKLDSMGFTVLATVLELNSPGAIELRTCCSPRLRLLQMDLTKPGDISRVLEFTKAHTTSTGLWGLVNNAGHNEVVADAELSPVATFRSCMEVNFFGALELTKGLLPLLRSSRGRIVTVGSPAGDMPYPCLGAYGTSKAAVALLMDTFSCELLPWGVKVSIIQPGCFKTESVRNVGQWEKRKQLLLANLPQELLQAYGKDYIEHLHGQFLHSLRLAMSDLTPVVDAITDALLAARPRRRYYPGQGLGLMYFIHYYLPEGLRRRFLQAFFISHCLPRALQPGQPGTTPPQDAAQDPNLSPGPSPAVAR
Description: Inhibition of human 11beta HSD2 at 4 uM

[3] = molecular target: T2, 11-beta-hydroxysteroid dehydrogenase type 2 (Mus musculus, UniProt P51661); test: Inhibition of mouse 11beta HSD2
T2 sequence (P51661 whole entry): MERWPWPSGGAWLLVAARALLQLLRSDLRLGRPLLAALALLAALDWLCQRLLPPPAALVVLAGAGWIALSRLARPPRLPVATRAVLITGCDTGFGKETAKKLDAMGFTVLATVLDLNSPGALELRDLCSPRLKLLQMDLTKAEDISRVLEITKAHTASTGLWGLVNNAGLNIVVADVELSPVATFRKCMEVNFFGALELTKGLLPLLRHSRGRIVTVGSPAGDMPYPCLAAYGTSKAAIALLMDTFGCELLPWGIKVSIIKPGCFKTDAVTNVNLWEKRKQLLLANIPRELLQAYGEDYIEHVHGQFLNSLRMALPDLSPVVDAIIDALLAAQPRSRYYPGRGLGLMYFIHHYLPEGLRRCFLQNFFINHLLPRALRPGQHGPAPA

[4] = molecular target: T3, Nuclear receptor subfamily 1 group I member 2 (Homo sapiens, UniProt O75469); test: Agonist activity at human PXR at 10 uM; assay type: functional
T3 sequence (O75469 whole entry): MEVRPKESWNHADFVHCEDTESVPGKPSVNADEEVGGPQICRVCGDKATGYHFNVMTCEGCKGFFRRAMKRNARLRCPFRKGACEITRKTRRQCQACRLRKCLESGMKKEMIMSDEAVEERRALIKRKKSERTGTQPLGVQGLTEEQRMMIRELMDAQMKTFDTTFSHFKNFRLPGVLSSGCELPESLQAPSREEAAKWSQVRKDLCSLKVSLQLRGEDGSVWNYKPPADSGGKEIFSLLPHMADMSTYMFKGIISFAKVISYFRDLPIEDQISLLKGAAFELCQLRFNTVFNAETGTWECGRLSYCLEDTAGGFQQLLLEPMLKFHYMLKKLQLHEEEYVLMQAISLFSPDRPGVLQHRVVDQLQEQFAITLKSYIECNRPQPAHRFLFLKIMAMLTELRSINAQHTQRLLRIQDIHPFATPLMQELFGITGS

[5] = molecular target: 11-beta-hydroxysteroid dehydrogenase 1 (Mus musculus, UniProt P50172); test: Inhibition of mouse 11beta HSD1 by SPA assay
Chain of 11-beta-hydroxysteroid dehydrogenase 1 (Mus musculus, UniProt P50172) (P50172 whole entry): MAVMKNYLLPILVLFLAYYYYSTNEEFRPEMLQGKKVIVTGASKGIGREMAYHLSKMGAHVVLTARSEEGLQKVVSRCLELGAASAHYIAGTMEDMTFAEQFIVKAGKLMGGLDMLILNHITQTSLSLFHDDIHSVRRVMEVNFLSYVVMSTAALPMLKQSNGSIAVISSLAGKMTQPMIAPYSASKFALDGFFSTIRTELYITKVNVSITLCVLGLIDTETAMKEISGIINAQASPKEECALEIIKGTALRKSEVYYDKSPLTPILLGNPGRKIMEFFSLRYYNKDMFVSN

[6] = tested on: Mus musculus; test: Inhibition of [3H]cortisone to [3H]cortisol conversion in mouse at 10 mg/kg, po administered as single dose after 4 hrs; assay type: functional
[7] = molecular target: T3, Nuclear receptor subfamily 1 group I member 2; test: Agonist activity at human PXR; assay type: functional
[8] = molecular target: 11-beta-hydroxysteroid dehydrogenase 1 (Homo sapiens, UniProt P28845); test: Inhibition of human 11beta HSD1 by SPA assay
Chain of 11-beta-hydroxysteroid dehydrogenase 1 (Homo sapiens, UniProt P28845) (P28845 whole entry): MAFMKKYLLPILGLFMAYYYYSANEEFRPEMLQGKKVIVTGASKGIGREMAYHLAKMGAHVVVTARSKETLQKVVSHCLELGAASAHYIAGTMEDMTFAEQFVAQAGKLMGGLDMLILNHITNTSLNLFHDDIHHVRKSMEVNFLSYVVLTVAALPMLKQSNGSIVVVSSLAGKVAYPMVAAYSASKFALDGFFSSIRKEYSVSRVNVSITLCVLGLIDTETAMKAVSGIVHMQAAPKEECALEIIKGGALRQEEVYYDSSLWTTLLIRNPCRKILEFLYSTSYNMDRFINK

[9] = molecular target: T4, 11-beta-hydroxysteroid dehydrogenase type 2 (Homo sapiens, UniProt P80365); test: Inhibition of human 11beta HSD2
T4 sequence (P80365 whole entry): T1 sequence (whole entry)

[10] = tested on: Mus musculus; test: Inhibition of [3H]cortisone to [3H]cortisol conversion in mouse at 10 mg/kg, po administered as single dose after 1 hr; assay type: functional

Structure (SMILES) | inhibition [2] | IC50 [3] | Activity [4] | IC50 [5] | EC50 [7] | IC50 [8] | IC50 [9] | inhibition in vivo at 10 mg/kg [1] | inhibition in vivo at 10 mg/kg [6] | inhibition in vivo at 10 mg/kg [10]
CCSc1ccccc1-c1ccc(-c2nnc(C3(c4ccc(Cl)cc4)CCC3)n2C)c(Cl)c1 | 54% | > 4000 nM | 48% | 4.7 nM | 1700 nM | 11 nM |  | 1% | 51% | 
Cn1c(-c2ccc(-c3ccc(S(C)(=O)=O)cc3)cc2Cl)nnc1C1(c2ccc(Cl)cc2)CCC1 |  | > 4000 nM | 2% | 1.2 nM | > 25000 nM | 1.7 nM | > 4000 nM | -5% | 20% | 
CCS(=O)(=O)c1ccc(-c2ccc(-c3nnc(C4(c5ccc(Cl)cc5)CCC4)n3C)c(Cl)c2)cc1 | 75% | > 4000 nM | -8% | 0.98 nM | > 25000 nM | 2.1 nM |  | 16% | 71% | 
Cn1c(-c2ccc(-c3ccccc3)cc2Cl)nnc1C1(c2ccc(Cl)cc2)CCC1 |  |  |  | 1.4 nM | 1700 nM | 1 nM |  | 85% | 99% | 
Cn1c(-c2ccc(-c3ccncc3)cc2Cl)nnc1C1(c2ccc(Cl)cc2)CCC1 |  | > 4000 nM | 42% | 2 nM | 7700 nM | 1 nM |  | 8% | 39% | 
Cn1c(-c2ccc(-n3ccnc3C(F)(F)F)cc2Cl)nnc1C1(c2ccc(Cl)cc2)CCC1 |  | > 4000 nM | 24% | 0.96 nM | 3200 nM | 0.98 nM |  | 20% | 58% | 
Cn1c(-c2ccc(O)c(F)c2)nnc1C1(c2ccc(Cl)cc2)CCC1 |  | > 4000 nM |  | 61 nM |  | 2 nM | > 4000 nM |  | 6% | 3%

The next lines start with results.

inhibition [2] | IC50 [3] | Activity [4] | IC50 [5] | EC50 [7] | IC50 [8] | IC50 [9] | Structure (SMILES) | inhibition in vivo at 10 mg/kg [1] | inhibition in vivo at 10 mg/kg [6] | inhibition in vivo at 10 mg/kg [10]
59% | > 4000 nM | -31% | 0.98 nM | 25000 nM | 0.98 nM |  | CCS(=O)(=O)c1cccc(-c2ccc(-c3nnc(C4(c5ccc(Cl)cc5)CCC4)n3C)c(Cl)c2)c1 | 29% | 93% | 
 | > 4000 nM | 21% | 2.8 nM | 12000 nM | 1 nM |  | Cn1c(-c2ccc(-n3ccnc3)cc2Cl)nnc1C1(c2ccc(Cl)cc2)CCC1 | 10% | 78% | 
 | > 4000 nM | 35% | 1.3 nM | 3600 nM | 1 nM |  | Cn1c(-c2ccc(-c3cccnc3)cc2Cl)nnc1C1(c2ccc(Cl)cc2)CCC1 | 26% | 100% | 
 | > 4000 nM | 98% | 1.4 nM | 2400 nM | 1 nM |  | Cn1c(-c2ccc(-c3ccccn3)cc2Cl)nnc1C1(c2ccc(Cl)cc2)CCC1 | -5% | 41% | 
 | > 4000 nM | 74% | 1.2 nM | 700 nM | 0.98 nM | > 4000 nM | CCS(=O)(=O)c1ccccc1-c1ccc(-c2nnc(C3(c4ccc(Cl)cc4)CCC3)n2C)c(Cl)c1 | 6% | 56% | 
 | > 4000 nM | 23% | 9.4 nM | 7900 nM | 14 nM |  | Cn1c(-c2ccc(-n3ccnc3S(C)(=O)=O)cc2Cl)nnc1C1(c2ccc(Cl)cc2)CCC1 |  |  | 
 | > 4000 nM | 13% | 6 nM | 1300 nM | 9.8 nM |  | Cc1cn(-c2ccc(-c3nnc(C4(c5ccc(Cl)cc5)CCC4)n3C)c(Cl)c2)c(C2CC2)n1 | 7% | 60% | 
 | > 4000 nM | 22% | 9.6 nM | > 25000 nM | 2.6 nM |  | Cc1nccn1-c1ccc(-c2nnc(C3(c4ccc(Cl)cc4)CCC3)n2C)c(Cl)c1 |  |  | 
 | > 4000 nM | -5% | 0.98 nM | > 25000 nM | 0.98 nM | > 4000 nM | Cn1c(-c2ccc(-c3cccc(S(C)(=O)=O)c3)cc2Cl)nnc1C1(c2ccc(Cl)cc2)CCC1 | 36% | 96% | 
